Test results reported in US12102638B2 (Urovant Sciences GmbH, priority 2017, dated 2024).
Like-named read-outs stand apart in the source and are kept apart here.

How the values were obtained:
[1] = tested on: men and women with OAB; assay: Phase 2b study in OAB, efficacy (voiding diary); format: in vivo, human
Description: Part 2 was designed to continue to assess the safety and efficacy of concomitant dosing. […] Subjects in both Part 1 and Part 2 had the option of enrolling in a 1-year extension. Participants were required to keep a voiding diary, recording the occurrence of each strong urge, total incontinence, and urge incontinence episode. Efficacy data for Part 1 and Part 2 are summarized herein.
The total number of urgency incontinence episodes must have exceeded the total number of stress incontinence episodes for all subjects.

[2] = target: β2-AR (Homo sapiens, UniProt P07550); assay: competition binding assay, membranes with recombinant β2-AR
[3] = relative bioequivalence of aqueous and non-aqueous tablets; format: in vivo, human; conditions: 50 mg
Description: An open-label, single-dose, randomized, two-period, two-treatment, two-sequence, crossover Phase 1 study evaluated the relative bioequivalence of two types of tablets with slightly different composition: aqueous tablet (test) and non-aqueous tablet (reference).

[4] = effect of food on oral absorption (single and multiple dose); format: in vivo, human; conditions: for mean AUC0-24 with food compared to fasted state / mean Cmax with food compared to fasted state: 150 mg multiple oral doses, middle-aged and elderly females
[5] = drug interaction study of vibegron 75 mg and rifampin; conditions: for CL/F, geometric mean / V/F, geometric mean: single 75 mg
[6] = tested on: patients with overactive bladder
Description: A placebo group was included in the main study, and a group that received tolterodine monotherapy was included in the main study and in the extension.

[7] = target: T1, β1-AR (Homo sapiens, UniProt P08588); assay: competition binding assay, membranes with recombinant β1-AR
T1 construct: expressed in transfected cells; membranes used

[8] = single-dose PK in patients with moderate hepatic impairment; format: in vivo, human; conditions: single 100 mg
[9] = target: CYP3A4 (Homo sapiens, UniProt P08684); assay: in vitro metabolism by CYPs; format: in vitro ADME
[10] = tested on: human plasma proteins; assay: plasma protein binding; format: in vitro ADME
[11] = human, in vivo
[12] = multiple rising dose Phase 1 pharmacokinetics in healthy subjects; format: in vivo, human; conditions: for concentration at 14 days: plasma, oral, read-out: Ctrough
[13] = vibegron 3 mg once daily, OAB Wet subjects
[14] = vibegron 3 mg once daily, Part 1
[15] = vibegron 15 mg once daily, OAB Wet subjects
[16] = vibegron 15 mg once daily, Part 1
[17] = vibegron 50 mg once daily, OAB Wet subjects
[18] = vibegron 50 mg once daily, Part 1
[19] = vibegron 100 mg once daily, OAB Wet subjects
[20] = 150 mg multiple doses, middle-aged females, Day 14
[21] = single 50 mg, Japanese young males
[22] = single 50 mg, non-Japanese young males

T1 sequence (P08588 whole entry): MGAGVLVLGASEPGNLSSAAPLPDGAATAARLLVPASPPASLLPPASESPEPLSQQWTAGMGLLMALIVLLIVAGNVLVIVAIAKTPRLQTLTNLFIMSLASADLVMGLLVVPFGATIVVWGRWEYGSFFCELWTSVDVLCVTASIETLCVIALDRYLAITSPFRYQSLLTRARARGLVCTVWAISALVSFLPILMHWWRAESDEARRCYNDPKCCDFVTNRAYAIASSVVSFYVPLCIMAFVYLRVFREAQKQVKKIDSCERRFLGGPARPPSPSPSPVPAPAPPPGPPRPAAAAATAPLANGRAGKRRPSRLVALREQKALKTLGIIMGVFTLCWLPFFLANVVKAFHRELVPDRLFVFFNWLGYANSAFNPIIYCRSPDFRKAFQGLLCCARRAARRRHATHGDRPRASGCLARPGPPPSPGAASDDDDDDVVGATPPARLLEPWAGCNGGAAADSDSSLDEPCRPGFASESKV
Sequence of β2-AR (P07550 whole entry): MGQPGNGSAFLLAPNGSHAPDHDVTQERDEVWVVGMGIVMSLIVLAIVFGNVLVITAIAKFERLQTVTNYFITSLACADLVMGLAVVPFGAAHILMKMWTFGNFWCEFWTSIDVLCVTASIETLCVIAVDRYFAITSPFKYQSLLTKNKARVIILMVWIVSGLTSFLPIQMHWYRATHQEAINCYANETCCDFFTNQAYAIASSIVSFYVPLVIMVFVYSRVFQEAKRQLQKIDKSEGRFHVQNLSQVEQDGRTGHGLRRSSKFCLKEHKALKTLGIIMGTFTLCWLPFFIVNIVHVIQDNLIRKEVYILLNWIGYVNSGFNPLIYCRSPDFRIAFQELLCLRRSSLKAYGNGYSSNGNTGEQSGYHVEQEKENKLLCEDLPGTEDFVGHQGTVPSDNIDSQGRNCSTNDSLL
Sequence of CYP3A4 (P08684 whole entry): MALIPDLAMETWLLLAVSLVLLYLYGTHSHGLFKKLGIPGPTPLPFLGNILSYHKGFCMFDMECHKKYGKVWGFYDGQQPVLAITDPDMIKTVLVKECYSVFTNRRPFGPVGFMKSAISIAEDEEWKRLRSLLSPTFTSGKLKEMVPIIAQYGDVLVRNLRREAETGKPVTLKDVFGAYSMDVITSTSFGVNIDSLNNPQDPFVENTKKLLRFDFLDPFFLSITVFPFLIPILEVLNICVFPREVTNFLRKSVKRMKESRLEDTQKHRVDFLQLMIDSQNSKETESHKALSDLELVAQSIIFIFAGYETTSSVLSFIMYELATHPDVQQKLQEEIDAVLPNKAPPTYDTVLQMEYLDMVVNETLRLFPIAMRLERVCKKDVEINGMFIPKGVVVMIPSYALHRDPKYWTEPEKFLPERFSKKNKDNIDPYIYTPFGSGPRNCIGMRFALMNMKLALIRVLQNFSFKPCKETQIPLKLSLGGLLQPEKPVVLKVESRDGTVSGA

SMILES: O=C(Nc1ccc(C[C@@H]2CC[C@H]([C@H](O)c3ccccc3)N2)cc1)[C@@H]1CCc2nccc(=O)n21 [vibegron, (6S)—N-[4-[[(2S,5R)-5-[(R)-hydroxy(phenyl)methyl]pyrrolidin-2-yl]methyl]phenyl]-4-oxo-7,8-dihydro-6H-pyrrolo[1,2-a]pyrimidine-6-carboxamide]
- dose-response relationship ([1]; between 50 and 100 mg once daily): relatively shallow dose-response relationship
- Total Incontinence Episodes, difference from placebo Week 8, LS means [1, 13]: −0.18
- Urgency Incontinence Episodes, difference from placebo Week 8, LS means [1, 13]: −0.28
- Micturitions, difference from placebo Week 8, LS means [1, 14]: −0.46
- Urgency Episodes, difference from placebo Week 8, LS means [1, 14]: −0.18
- Total Incontinence Episodes, difference from placebo Week 8, LS means [1, 15]: −0.48
- Urgency Incontinence Episodes, daily number, Week 8 mean [1, 15]: 1.12
- Urgency Incontinence Episodes, difference from placebo Week 8, LS means [1, 15]: −0.57
- Micturitions, difference from placebo Week 8, LS means [1, 16]: −0.45
- Urgency Episodes, difference from placebo Week 8, LS means [1, 16]: −0.67
- Total Incontinence Episodes, difference from placebo Week 8, LS means [1, 17]: −0.60
- Urgency Incontinence Episodes, difference from placebo Week 8, LS means [1, 17]: −0.72
- Micturitions, difference from placebo Week 8, LS means [1, 18]: −0.64
- Urgency Episodes, difference from placebo Week 8, LS means [1, 18]: −0.76
- average number of daily micturitions compared to placebo at Week 8 ([1]; vibegron 100 mg and 50 mg treatment groups, Part 1): statistically significant decreases
- Total Incontinence Episodes, daily number, Week 8 mean [1, 19]: 1.12
- Total Incontinence Episodes, difference from placebo Week 8, LS means [1, 19]: −0.58
- Urgency Incontinence Episodes, difference from placebo Week 8, LS means [1, 19]: −0.71
- Micturitions, difference from placebo Week 8, LS means ([1]; vibegron 100 mg once daily, Part 1): −0.91
- Micturitions, difference in LS means 100 mg − 50 mg ([1]; week 8): −0.27
- Total incontinence, difference in LS means 100 mg − 50 mg ([1]; week 8): 0.02
- Urgency Episodes, difference in LS means 100 mg − 50 mg ([1]; week 8): −0.48
- Urgency incontinence, difference in LS means 100 mg − 50 mg ([1]; week 8): 0.01
- binding to β2-AR [2]: does not bind
- AUC0-inf GMR test to reference tablet [3]: 100.2%
- Cmax GMR test to reference tablet [3]: 107.7%
- reduction in mean AUC0-24hr with food vs fasted [4, 20]: 20%
- reduction in mean Cmax with food vs fasted [4, 20]: 47%
- mean AUC0-24 with food compared to fasted state ([4]; Day 1): ~42%
- mean Cmax with food compared to fasted state ([4]; Day 1): 59%
- mean AUC0-24 with food compared to fasted state ([4]; Day 14): ~20%
- mean Cmax with food compared to fasted state ([4]; Day 14): 43%
- Ctrough ([4]; multiple dose 150 mg, day 14, Non-Japanese middle-aged females, Fasted): 62.7 ± 12.4 ng/mL
- reduction in AUC0-inf with standard Japanese breakfast [4, 21]: 37%
- reduction in Cmax with standard Japanese breakfast [4, 21]: 52%
- delay in Tmax with high-fat meal vs fasted [4, 22]: ~1 h
- reduction in AUC0-inf with high-fat meal vs fasted [4, 22]: 46%
- reduction in Cmax with high-fat meal vs fasted [4, 22]: 67%
- tolerability of vibegron and rifampin ([5]; healthy male and female subjects): well tolerated
- CL/F, geometric mean ([5]; Vibegron + Rifampin 600 mg QD): 57.3 L/h
- V/F, geometric mean ([5]; Vibegron + Rifampin 600 mg QD): 6140 L
- CL/F, geometric mean ([5]; Vibegron alone): 57.2 L/h
- V/F, geometric mean ([5]; Vibegron alone): 6930 L
- subjects with an AE related to study drug ([5]; vibegron 75 mg and rifampin 600 mg QD): 15%
- Accidental overdose, % ([6]; Vibegron 3 mg, N = 144, first 12 weeks): (2.1) %
- Accidental overdose, % ([6]; Vibegron 15 mg, N = 134, first 12 weeks): (4.5) %
- Accidental overdose, % ([6]; Vibegron 50 mg, N = 148, first 12 weeks): (2.7) %
- Accidental overdose, % ([6]; Vibegron 100 mg, N = 261, first 12 weeks): (4.2) %
- frequency of injuries ([6]; human, in vivo): 0.9%
- binding to β1-AR [7]: does not bind
- CL/F, geometric mean ([8]; Healthy Matched Control Subjects): 68.3 L/h
- CL/F, geometric mean ([8]; Moderate Hepatic Impairment): 56.0 L/h
- CYP responsible for in vitro metabolism [9]: CYP3A4 is the predominant CYP
- bound to human plasma proteins [10]: approximately 49%
- unbound in plasma [10]: 49%
- dose recovered in feces [11]: approximately 59%
- dose recovered in urine [11]: ~20%
- fraction of dose excreted at steady state (fe0-24hr, ss) ([12]; 100 mg, elderly subjects): ~17%
- fraction of dose excreted at steady state (fe0-24hr, ss) ([12]; 100 and 150 mg, young males): ~14%
- steady state exposure (AUC0-24) higher in elderly Japanese than elderly non-Japanese ([12]; Day 14): 35%
- steady state Cmax in elderly compared to young males ([12]; QD doses of 100 mg): ~1.3 fold
- concentration at 14 days ([12]; both sexes, human, 100 mg, multiple dose 100 mg, after 14 days, Elderly Male and Female): 54.2 ng/mL
- Cmax higher in elderly and females than healthy young males ([12]; human, in vivo): 50-70%
- Cmax increased in elderly Japanese compared to elderly non-Japanese ([12]; human, in vivo): 82%
- steady state AUC in middle-aged females compared to middle-aged males ([12]; human, in vivo): ~1.5 fold
- steady state exposures higher in Japanese than non-Japanese young males ([12]; human, in vivo): ~30%
- concentration at 14 days ([12]; male, human, 50 mg, multiple dose 50 mg, after 14 days, healthy young males): 15.2 ng/mL
- concentration at 14 days ([12]; male, human, 100 mg, multiple dose 100 mg, after 14 days, healthy young males, Japanese): 41 ± 11 ng/mL
- concentration at 14 days ([12]; male, human, 100 mg, multiple dose 100 mg, after 14 days, healthy young males): 31.9 ng/mL
- t1/2, harmonic mean ± pseudo SD ([12]; multiple dose 150 mg, after 14 days, healthy young males): 79.2 ± 9.2 h
- AUC0-24 ([12]; multiple dose 200 mg, after 14 days, healthy young males): 3200 ± 1120 ng·h/mL
- t1/2, harmonic mean ± pseudo SD ([12]; multiple dose 400 mg, after 14 days, healthy young males): 58.9 ± 5.9 h
- time to steady state concentrations ([12]; once daily dosing): ≤ 7 days
- exposures (AUC) higher in females compared with males ([12]; regardless of age): 50%
